Reference: US12404269B2, “Aminoquinazolinone and aminoisoquinolinone derivatives and application thereof” (ZHEJIANG UNIVERSITY, priority 2018, dated 2025)
Where two headings read alike, the source gives them in different places.

Tests used:
PI3Kδ = target: T1, PI3Kδ (Homo sapiens, UniProt O00329); experiment: PI3Kδ molecular activity test (ADP-GLO); type: biochemical; conditions: recombinant protein
T1 construct: purchased Carna Bioscience
Procedure: (§1) Instrument: ELISA Reader Envision™ (PerkinElmer, USA)
(§2) Materials: Human recombinant PI3K and PI3Kδ proteins, purchased from Carna Bioscience; ADP-GLO kit, purchased from Promega.
(§3) Take the PI3Kα Molecular Activity Test as an Example to Describe the Text Method of the PI3K Subtypes
(§4) PI3K-α recombinant protein and substrate ATP were diluted with kinase reaction buffer (50 mM Tris-HCl, pH 7.4, 2.1 mM DTT, 0.05% Tween-20, 10 mM MgCl2). […] The specific reaction system was 2% of DMSO, 0.8 ng/μL PI3K-α, and 100 μM ATP, the positive compound control groups and control wells were set, and there were 3 multiple-wells for each concentration of each sample. After incubating for 2 hours at room temperature, ADP-GLO Reagent and Kinase Detection Reagent were added respectively, and then Envision™ was used to detect the […] readings. The activity rate of the samples were calculated by the sample readings, and the calculation formula was: activity rate=(ODcompound−ODcontrol)/(ODDMSO−ODcontro) ×100%.

MCF7 (PIK3CA mut) = experiment: Tumor cell proliferation, CCK8 method, MCF7; type: cell-based, human; conditions: Homo sapiens
Procedure: (§5) The IC50 value was calculated using Graphpad Prism V5.0 software.

ZR-75-1 (PTEN loss) = experiment: Tumor cell proliferation, CCK8 method, ZR-75-1; type: cell-based; conditions: Homo sapiens; CCK8, ZR-75-1
Procedure: as §5

PI3Kα = target: T2, PI3Kα (Homo sapiens, UniProt P42336); experiment: PI3Kα molecular activity test (ADP-GLO); type: biochemical; conditions: for Selectivity (PI3Kδ IC50/PI3KαIC50): PI3Kδ IC50/PI3Kα IC50; for IC50: recombinant protein, 100 μM ATP, 2 hours at room temperature
T2 construct: purchased Carna Bioscience
Procedure: as §1, §2, §3, §4

SW48 (PIK3CA mut) = experiment: Tumor cell proliferation, CCK8 method, SW48; type: cell-based; conditions: Homo sapiens
Procedure: as §5

KPL4 (PIK3CA mut) = experiment: Tumor cell proliferation, CCK8 method, KPL4; type: cell-based
Procedure: as §5

[1] = Pharmacokinetic determination in SD rats, tail vein injection; type: in vivo; conditions: rat, plasma; male SD rats, intravenous, 1 mg/kg
Procedure: Healthy SD rats weighing 200±20 g, male, were randomly divided into groups with 6 rats in each group, and were administered by tail vein injection at a dose of 1 mg/kg. The blood sampling time points for pharmacokinetic analysis: 5 min, 15 min, 30 min, 2 h, 4 h, 6 h, 8 h, 24 h, and 48 h after administration. About 0.3 mL of whole blood was collected via the orbit and placed in a heparinized test tube, centrifugalized at 6000 rpm for 10 min to separate the plasma, and store at −80° C. for testing. The plasma concentrations of the each compounds were detected with an Agilent liquid mass spectrometry (LC-MS/MS, Agilent Jet Stream Electrometric spray ion), and the relevant pharmacokinetic parameters were calculated using the WinNonLin 7.0 pharmacokinetic software non-compartment model method.

Kasumi-1 cell line = experiment: In vivo efficacy, Kasumi-1 subcutaneous transplanted tumor in nude mice; conditions: 10 mg/Kg qd for 21 days, Kasumi-1 tumor, female nude mice, FIG. 1
Procedure: Female nude mice, weighing 20±3 g, were inoculated subcutaneously with Kasumi-1 cell line in their right axilla. The cell inoculation accounted for 1×10^7/mouse. After tumor formation, the diameter of the transplanted tumor was measured with a vernier caliper. When the tumor grown to 100-300 mm^3, the animals were divided into a model control group and administration groups with 6 […] in each group depending on body weight and tumor volume. The model control group was given the same amount of blank solvent. After grouping, the drugs were administered daily (qd) with a doge of 10 mg/Kg for 21 consecutive days. During the experiment, the diameter of the transplanted tumor and the weight of the mice were measured twice a week. The calculation formula of the tumor volume (TV) was: TV=½×a×b^2, where a and b represented length and width respectively. The relative tumor volume (RTV) was calculated from the measurement results, the calculation formula was: RTV=Vt/V0, where V0 was the tumor volume measured as grouping and administering (i.e. d0), and Vt was the tumor volume at each measurement. The evaluation index of anti-tumor activity was the relative tumor proliferation rate T/C(%), and the calculation formula was as follows: T/C(%)=(TRTV/CRTV)×100%, where TRTV: RTV of the treatment group; and CRTV: RTV of the negative control group.

[2] = background; cited from earlier work
[3] = CLL patients, background; cited from earlier work
[4] = CCK8, MCF7, read-out: MCF7 (PIK3CA mut) proliferation IC50
[5] = CCK8, SW48, read-out: SW48 (PIK3CA mut) proliferation IC50
[6] = CCK8, KPL4, read-out: KPL4 (PIK3CA mut) proliferation IC50

T2 sequence (P42336 whole entry): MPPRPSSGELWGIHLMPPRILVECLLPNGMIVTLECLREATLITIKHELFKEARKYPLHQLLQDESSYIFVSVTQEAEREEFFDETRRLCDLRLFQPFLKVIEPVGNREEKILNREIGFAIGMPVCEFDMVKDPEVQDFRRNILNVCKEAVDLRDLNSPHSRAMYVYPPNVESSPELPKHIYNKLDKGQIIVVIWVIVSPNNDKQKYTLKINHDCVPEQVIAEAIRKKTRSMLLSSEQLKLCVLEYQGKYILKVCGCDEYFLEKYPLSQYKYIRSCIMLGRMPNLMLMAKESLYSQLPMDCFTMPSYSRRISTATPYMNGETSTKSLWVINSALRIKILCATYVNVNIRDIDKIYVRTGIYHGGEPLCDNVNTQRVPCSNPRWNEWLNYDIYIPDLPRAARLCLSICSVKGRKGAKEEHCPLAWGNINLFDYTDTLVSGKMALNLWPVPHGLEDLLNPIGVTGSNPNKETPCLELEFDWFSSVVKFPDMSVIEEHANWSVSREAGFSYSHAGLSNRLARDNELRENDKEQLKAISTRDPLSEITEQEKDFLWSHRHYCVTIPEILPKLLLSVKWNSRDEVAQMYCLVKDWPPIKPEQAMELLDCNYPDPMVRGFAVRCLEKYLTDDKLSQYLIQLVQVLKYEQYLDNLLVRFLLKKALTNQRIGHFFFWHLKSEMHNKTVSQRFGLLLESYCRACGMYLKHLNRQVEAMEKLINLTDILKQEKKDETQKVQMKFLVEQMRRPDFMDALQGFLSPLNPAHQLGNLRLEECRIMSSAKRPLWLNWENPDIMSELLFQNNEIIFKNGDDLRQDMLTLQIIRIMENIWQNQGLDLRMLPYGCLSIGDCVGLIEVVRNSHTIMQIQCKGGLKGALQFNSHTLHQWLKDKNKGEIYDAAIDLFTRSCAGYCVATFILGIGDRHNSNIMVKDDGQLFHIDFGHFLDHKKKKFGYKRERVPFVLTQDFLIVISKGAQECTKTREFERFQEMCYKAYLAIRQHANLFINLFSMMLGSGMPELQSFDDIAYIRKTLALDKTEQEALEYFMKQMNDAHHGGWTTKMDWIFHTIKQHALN
T2 sequence (P27986 whole entry partner): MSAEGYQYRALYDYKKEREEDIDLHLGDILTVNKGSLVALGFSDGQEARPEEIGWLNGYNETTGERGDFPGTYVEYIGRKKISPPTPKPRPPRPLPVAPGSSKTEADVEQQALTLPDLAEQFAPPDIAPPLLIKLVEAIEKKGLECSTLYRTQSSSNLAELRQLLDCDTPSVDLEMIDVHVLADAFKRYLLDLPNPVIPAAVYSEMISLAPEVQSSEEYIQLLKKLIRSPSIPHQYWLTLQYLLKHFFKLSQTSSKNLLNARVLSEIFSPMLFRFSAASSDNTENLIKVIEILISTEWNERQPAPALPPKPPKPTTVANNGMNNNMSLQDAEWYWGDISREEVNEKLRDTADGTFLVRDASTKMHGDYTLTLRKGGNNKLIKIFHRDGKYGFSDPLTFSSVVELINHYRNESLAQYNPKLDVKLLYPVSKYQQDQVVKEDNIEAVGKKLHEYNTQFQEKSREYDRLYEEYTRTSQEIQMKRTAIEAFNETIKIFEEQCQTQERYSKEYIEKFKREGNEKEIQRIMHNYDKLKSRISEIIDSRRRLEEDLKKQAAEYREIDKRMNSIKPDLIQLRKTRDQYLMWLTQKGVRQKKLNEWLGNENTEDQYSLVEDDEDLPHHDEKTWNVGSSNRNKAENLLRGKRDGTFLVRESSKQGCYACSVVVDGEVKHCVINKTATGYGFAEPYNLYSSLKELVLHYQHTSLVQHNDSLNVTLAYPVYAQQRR
T1 sequence (O00329 whole entry): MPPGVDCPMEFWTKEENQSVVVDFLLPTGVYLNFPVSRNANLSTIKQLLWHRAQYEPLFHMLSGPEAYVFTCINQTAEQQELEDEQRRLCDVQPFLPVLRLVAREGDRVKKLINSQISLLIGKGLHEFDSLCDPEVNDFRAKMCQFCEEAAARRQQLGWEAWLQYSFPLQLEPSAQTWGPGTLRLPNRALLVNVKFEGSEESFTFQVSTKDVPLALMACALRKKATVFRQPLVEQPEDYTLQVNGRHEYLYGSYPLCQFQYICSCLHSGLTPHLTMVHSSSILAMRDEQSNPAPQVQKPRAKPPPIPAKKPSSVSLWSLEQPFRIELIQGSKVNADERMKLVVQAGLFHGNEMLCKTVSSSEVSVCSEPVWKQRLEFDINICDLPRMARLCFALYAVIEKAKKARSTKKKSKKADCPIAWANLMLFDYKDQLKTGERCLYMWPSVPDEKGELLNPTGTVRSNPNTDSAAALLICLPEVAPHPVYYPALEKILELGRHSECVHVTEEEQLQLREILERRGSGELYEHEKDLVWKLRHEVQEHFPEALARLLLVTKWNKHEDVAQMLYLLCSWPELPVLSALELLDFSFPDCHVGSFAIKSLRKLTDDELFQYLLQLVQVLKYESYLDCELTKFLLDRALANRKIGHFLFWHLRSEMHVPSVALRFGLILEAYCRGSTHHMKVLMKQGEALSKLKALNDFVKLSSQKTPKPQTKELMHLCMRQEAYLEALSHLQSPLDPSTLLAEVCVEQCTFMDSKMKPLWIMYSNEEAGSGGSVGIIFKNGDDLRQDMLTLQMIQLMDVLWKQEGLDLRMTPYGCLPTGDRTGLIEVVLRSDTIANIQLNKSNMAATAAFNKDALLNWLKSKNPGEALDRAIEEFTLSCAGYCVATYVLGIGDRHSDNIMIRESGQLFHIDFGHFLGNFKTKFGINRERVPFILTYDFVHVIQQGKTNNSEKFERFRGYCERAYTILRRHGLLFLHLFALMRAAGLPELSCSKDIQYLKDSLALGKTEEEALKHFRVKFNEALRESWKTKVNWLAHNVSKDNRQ
T1 sequence (P27986 whole entry partner): as the sequence (P27986 whole entry partner) above

Row | SMILES | IC50 (PI3Kδ) [nM] | IC50 (MCF7 (PIK3CA mut); [4]) [nM] | IC50 (ZR-75-1 (PTEN loss)) [nM] | Selectivity (PI3Kδ IC50/PI3KαIC50) (PI3Kα) | IC50 (PI3Kα) [nM] | IC50 (SW48 (PIK3CA mut); [5]) [nM] | IC50 (KPL4 (PIK3CA mut); [6]) [nM] | Vd [1] [L/kg] | clearance [1] [mL/min/kg] | half-life [1] [min] | IC50 (MCF7 (PIK3CA mut); MCF7, read-out: MCF7 (PIK3CA mut) proliferation IC50) [nM] | IC50 (SW48 (PIK3CA mut); SW48, read-out: SW48 (PIK3CA mut) proliferation IC50) [nM] | IC50 (KPL4 (PIK3CA mut); KPL4, read-out: KPL4 (PIK3CA mut) proliferation IC50) [nM] | tumor growth inhibitory activity (Kasumi-1 cell line) | volume of distribution [2] [L/kg] | liver side effect [3]
1 | COc1c(OCCC(N)=O)ccc2c(=O)n(C)c(NC(=O)c3cnc(N)nc3)cc12 [8a′-3] | 20 to 200 | – | – | III (“III” represents >10 times) | < 20 | – | – | 2.9 | 41.7 | 402 | – | – | – | – | – | –
2 | CCn1c(NC(=O)c2cnc(N)nc2)nc2c3c(ccc2c1=O)OCCCO3 [14b-3] | – | – | – | – | – | – | – | 2.4 | 38.3 | 282 | – | – | – | – | – | –
3 | CCn1c(NC(=O)c2cnc(N)nc2)nc2c3c(ccc2c1=O)OCCOCCOCCOCCO3 [14b-11] | 20 to 200 | < 20 | 200 to 1000 | I (“I” represents <5 times) | 20 to 200 | 200 to 1000 | 20 to 200 | – | – | – | – | – | – | – | – | –
4 | CCn1c(NC(=O)c2cnc(N)nc2)cc2c3c(ccc2c1=O)OCO3 [14b′-1] | – | – | – | – | – | – | – | 3.9 | 65 | 252 | – | – | – | – | – | –
5 | CCn1c(NC(=O)c2cnc(N)nc2)cc2c3c(ccc2c1=O)OCCOCCOCCO3 [14b′-6] | < 20 | < 20 | 20 to 200 | I (“I” represents <5 times) | < 20 | 20 to 200 | 20 to 200 | – | – | – | – | – | – | – | – | –
6 | COc1c(OCCCN2CCOCC2)ccc2c1N=C(NC(=O)c1cnc(N)nc1)N1CCN=C21 [Copanlisib, reference compound] | – | – | < 20 | – | – | – | – | 33.5 | 36.7 | 534 | < 20 | < 20 | < 20 | – | 32.6 | –
7 | CC[C@H](Nc1ncnc2[nH]cnc12)c1nc2cccc(F)c2c(=O)n1-c1ccccc1 [Idelalisib] | – | – | – | – | – | – | – | – | – | – | – | – | – | – | – | elevated transaminase

Second part, led by results:

Row | IC50 (PI3Kδ) [nM] | IC50 (MCF7 (PIK3CA mut); [4]) [nM] | IC50 (ZR-75-1 (PTEN loss)) [nM] | Selectivity (PI3Kδ IC50/PI3KαIC50) (PI3Kα) | IC50 (PI3Kα) [nM] | IC50 (SW48 (PIK3CA mut); [5]) [nM] | IC50 (KPL4 (PIK3CA mut); [6]) [nM] | Vd [1] [L/kg] | clearance [1] [mL/min/kg] | half-life [1] [min] | IC50 (MCF7 (PIK3CA mut); MCF7, read-out: MCF7 (PIK3CA mut) proliferation IC50) [nM] | IC50 (SW48 (PIK3CA mut); SW48, read-out: SW48 (PIK3CA mut) proliferation IC50) [nM] | IC50 (KPL4 (PIK3CA mut); KPL4, read-out: KPL4 (PIK3CA mut) proliferation IC50) [nM] | SMILES | tumor growth inhibitory activity (Kasumi-1 cell line) | volume of distribution [2] [L/kg] | liver side effect [3]
8 | < 20 | < 20 | < 20 | II (“II” represents 5-10 times) | < 20 | < 20 | < 20 | 4.2 | 33.3 | 318 | – | – | – | COc1c(OCCCN2CCOCC2)ccc2c(=O)n(C)c(NC(=O)c3cnc(N)nc3)nc12 [8a-1] | – | – | –
9 | < 20 | < 20 | < 20 | III (“III” represents >10 times) | < 20 | < 20 | < 20 | 3.2 | 30 | 294 | – | – | – | COc1c(OCC(N)=O)ccc2c(=O)n(C)c(NC(=O)c3cnc(N)nc3)nc12 [8a-2] | – | – | –
10 | 20 to 200 | < 20 | 200 to 1000 | II (“II” represents 5-10 times) | < 20 | 20 to 200 | 20 to 200 | – | – | – | – | – | – | COc1c(OC[C@@H](O)CN2CCOCC2)ccc2c(=O)n(C)c(NC(=O)c3cnc(N)nc3)nc12 [8a-27, (S)-2-amino-N-(7-(2-hydroxy-3-morpholinopropoxy)-8-methoxy-3-methyl-4-oxo-3,4-dihydroquinazolin-2-yl) pyrimidine-5-carboxamide] | strong tumor growth inhibitory activity | – | –
11 | 20 to 200 | < 20 | 200 to 1000 | II (“II” represents 5-10 times) | < 20 | 20 to 200 | 20 to 200 | – | – | – | – | – | – | COc1c(OC[C@H](O)CN2CCOCC2)ccc2c(=O)n(C)c(NC(=O)c3cnc(N)nc3)nc12 [8a-28, (R)-2-amino-N-(7-(2-hydroxy-3-morpholinopropoxy)-8-methoxy-3-methyl-4-oxo-3,4-dihydroquinazolin-2-yl) pyrimidine-5-carboxamide] | strong tumor growth inhibitory activity | – | –
12 | – | < 20 | < 20 | – | – | < 20 | < 20 | 3.8 | 31.7 | 312 | – | – | – | CCn1c(NC(=O)c2cnc(N)nc2)nc2c(OC)c(OCCCN3CCOCC3)ccc2c1=O [8b-1] | – | – | –
13 | 20 to 200 | – | – | III (“III” represents >10 times) | < 20 | – | – | 3.9 | 26.7 | 252 | – | – | – | CCn1c(NC(=O)c2cnc(N)nc2)nc2c(OC)c(OCCCC(N)=O)ccc2c1=O [8b-9] | – | – | –
